Consider one compound from patent US12514843B2, “Biofilm disruption” (QBIOTICS PTY LTD, priority 2019, dated 2026).

≈ marks a conversion by molar mass, not a printed value.

Experiment [1] relates to human adult epidermal keratinocytes (HEKa). Nature of the experiment: Microarray gene expression in keratinocytes in vitro. Format: cell-based. The note with it: 170 nM. Here is the method:
(§1) In addition to disrupting the structure of biofilms comprising Gram-negative bacteria, effects of epoxytiglienones on regulation of genes involved in host response to bacterial infection were investigated in microarray studies with human adult epidermal keratinocytes (HEKa) and human adult dermal fibroblasts (HDF) in vitro.
(§2) For these studies, HEKa were cultured in EpiLife® Medium supplemented with Supplement S7 (both from Life Technologies, Carlsbad, CA, USA), while HDF were cultured in Medium 106 supplemented with LSGS (Low Serum Growth Supplement) (both from Life Technologies). Cells where then treated with vehicle or 170 nM Compound 4 for 0, 0.5, 1, 2, 4, 8, 24, 48 and 72 hours. RNA was extracted using a Qiagen RNeasy mini kit and biotinylated using an Illumina TotalPrep RNA Amplification Kit (Ambion, Austin, TX, USA). Labelled RNA was hybridised to HumanHT-12 v4 BeadChip Arrays (Illumina Inc, San Diego, CA, USA) and scanned according to standard Illumina protocols. Data were extracted in GenomeStudio (Illumina) using default analysis settings and no normalisation method. Resulting data were imported into GeneSpring GX (Agilent, Santa Clara, CA, USA. Expression values were normalised using quantile normalisation with default settings.

Experiment [2] concerns A. baumannii 7789 biofilm. Nature of the experiment: Disruption of established in vitro biofilm, CLSM with COMSTAT image analysis. It is filed as cell-based, Acinetobacter baumannii. Particulars: 256 μg/mL. Here is the method: Biofilms of E. coli IR57 were grown on 96-well glass-bottomed plates in Mueller-Hinton (MH) broth for 24 h, before 50% of the supernatant was replaced with fresh MH broth with or without the epoxytiglienone compound added to a final concentration of 256 μg/mL (vehicle is ethanol). An ethanol equivalent blank was used as a further control treatment. The plates were then incubated for a further 24 h at 37° C.
Confocal laser scanning microscopy (CLSM) was then used to image the biofilms, following staining with Live/Dead® Baclight stain with phosphate buffered saline (PBS) added to each well before imaging with z-stack CLSM. The resultant images were analysed by COMSTAT software to produce measurements of (i) biofilm biomass volume or bio-volume (μm^3/μm^2) and (ii) DEAD/LIVE bacterial ratio.
The effects of the epoxytiglienones (Compounds 1, 4, 6 and the comparator compound CC-1) on disruption of established in vitro biofilms were further investigated with two other species of Gram-negative bacteria (Pseudomonas aeruginosa PA01 and Acinetobacter baumannii 7789) using methods described in Example 2 above. Cell permeabilisation following Compound 1, 4 and 6 treatment was also determined using SYTOX™ Green Nucleic Acid Stain with untreated control and positive control of 70% isopropanol.

A further experiment concerns E. coli IR57 biofilm. Nature of the experiment: Multiple particle tracking (MPT) of 200 nm FluoSpheres in established biofilm. It is filed as cell-based, Escherichia coli. On the procedure: The effect of three epoxytiglienones (Compounds 1, 4 and 6) on the assembly and permeability of established biofilms of E. coli was assessed using multiple particle tracking (MPT). MPT is a recently described technique, allowing simultaneous tracking of micron-size particles through biofilms using microscopy, from which the diffusion-based parameters of embedded particles within the extracellular polymeric matrix (EPS) of the biofilm can be determined (Cao et al. 2016). MPT measurements also allows for calculation of micro-rheological properties of the biofilm structure following treatment with test compounds.
E. coli biofilms were established and epoxytiglienone and control treatments applied as described in Example 2 above. Twenty-four hours after application of the treatments, the biofilms were stained with SYTO9® and 0.0025% of negatively-charged, carboxylate-modified FluoSpheres® (200 nm) added onto the biofilms and incubated for a further 2 hours. FluoSphere® particle movements within the biofilms were then captured on video using epifluorescence microscopy with a high frame-rate camera (33 ms). Particle trajectories were tracked using ImageJ softwaren (Mosaic) before calculation of three parameters of the 200 nm FluoSphere® particles: (i) ensemble diffusion coefficient (Deff), (ii) ensemble mean squared displacement (MSD) and (iii) creep compliance (a measure of resistance to mechanical deformation derived from the MSD vs lag time). Each treatment was replicated three times.

Experiment [3] relates to human adult dermal fibroblasts (HDF). The experiment can be described thus: Microarray gene expression in fibroblasts in vitro. It is filed as cell-based. The note with it: 170 nM, within 2 to 4 hours. On the procedure:
as §1, §2

In the next experiment the test system is Streptococcus pyogenes. Nature of the experiment: Minimum inhibitory concentration (MIC) assay, planktonic culture, broth dilution. The note with it: S. pyogenes, planktonic culture in Mueller-Hinton broth; mean of three replicate tests. Further details: key: C = confluent growth, i.e. no MIC could be determined at any concentration tested. It is filed as cell-based. On the procedure: (§3) The effects of five epoxytiglienones (Compounds 1, 2, 3, 4 and 6) and two comparator comparator compounds (epoxytiglienones having longer carbon chains at the C12 position) on six human pathogenic bacteria (two Gram-positive and four Gram-negative species) were measured in conventional planktonic culture systems. A minimum inhibitory concentrations (MIC) assay (the standard assay employed to define and quantify antibiotic activity) was performed to determine antibacterial activity for each epoxytiglienone against each bacterial strain.
(§4) The Gram-positive bacteria used in this study were methicillin resistant Staphylococcus aureus (MRSA) 1004A and Streptococcus pyogenes. The Gram-negative bacteria used in this study were Pseudomonas aeruginosa PAO1, Escherichia coli IR57 (V7), Klebsiella pneumoniae, and Acinetobacter baumannii 7789 (V19). MIC assays were performed on planktonic cultures of each bacteria grown in Mueller-Hinton broth using the standard broth dilution method described by Jorgensen et al. (1999) using epoxytiglienones dissolved in ethanol.
A general note: Dilution methods test growth across graded concentrations, often in twofold steps.

The test system of experiment [4] is Acinetobacter baumannii 7789 (V19). Described as above. Format: cell-based. Particulars: A. baumannii, planktonic culture in Mueller-Hinton broth; mean of three replicate tests. Also on record: key: C = confluent growth, i.e. no MIC could be determined at any concentration tested. Here is the method:
as §3, §4

Experiment [5] relates to methicillin resistant Staphylococcus aureus (MRSA) 1004A. Described as above. Format: cell-based. Also on record: key: C = confluent growth, i.e. no MIC could be determined at any concentration tested. The note with it: S. aureus, planktonic culture in Mueller-Hinton broth; mean of three replicate tests. On the procedure: as §3, §4
The test system of experiment [6] is Pseudomonas aeruginosa PAO1. The description is as above. It is filed as cell-based. Also on record: key: C = confluent growth, i.e. no MIC could be determined at any concentration tested. The note with it: P. aeruginosa, planktonic culture in Mueller-Hinton broth; mean of three replicate tests. Here is the method:
as §3, §4

A further experiment has as its system Klebsiella pneumoniae. The experiment is described as above. It is filed as cell-based. Further details: key: C = confluent growth, i.e. no MIC could be determined at any concentration tested. The note with it: K. pneumoniae, planktonic culture in Mueller-Hinton broth; mean of three replicate tests. Here is the method:
as §3, §4

Experiment [7] deals with Escherichia coli IR57 (V7). The experiment is described as above. Particulars: E. coli, planktonic culture in Mueller-Hinton broth; mean of three replicate tests. It is filed as cell-based. Further details: key: C = confluent growth, i.e. no MIC could be determined at any concentration tested. On the procedure:
as §3, §4

Turning to `CCCCCC(=O)OC1C(C)C2(O)C(C3OC3(CO)C(O)C3(O)C(=O)C(C)=CC32)C2C(C)(C)C12OC(=O)CCCCC` (centres unmarked) [Compound 4, 12,13-dihexanoyl-6,7-epoxy-4,5,9,12,13,20-hexahydroxy-1-tiglien-3-one], in experiment [1] (from 8 to 72 hours post treatment), the “production of host defence peptides (DEFB2, DEFB3, DEFB4, RNASE7)” value is given as “significantly upregulated”. Moreover, the “expression of chemokines/cytokines involved in PMNL recruitment (IL8, CXCL1)” value in experiment [1] (within 2 to 4 hours) and in experiment [3] was “significant upregulation” in each case. Also, the DEAD/LIVE bacterial ratio entry in experiment [2] (vs untreated and ethanol blank controls) was “no significant differences”. Also, the “biofilm bio-volume (COMSTAT)” value in experiment [2] (vs untreated and ethanol blank controls (p<0.05)) was “significant reductions”. Further, the “Diffusion coefficient (Deff) ± standard deviation” value with E. coli IR57 biofilm (200 nm negatively-charged carboxylate-modified FluoSpheres in E. coli IR57 biofilms, 256 μg/mL, 24 h treatment) is listed as 0.8449 ± 0.1250 cm^2 · s^−1 × 10^−9. The “mean squared displacement (MSD) of FluoSphere particles” value in the experiment on E. coli IR57 biofilm (E. coli IR57 biofilm, 200 nm FluoSpheres, vs untreated and ethanol blank controls) is recorded as “substantially higher”. For the same compound, in the experiment on E. coli IR57 biofilm (E. coli IR57 biofilm, derived from MSD vs lag time, vs untreated and ethanol blank controls), the biofilm creep compliance entry is given as “increased”. The Minimum inhibitory concentrations in the experiment with Streptococcus pyogenes was 256 µg/mL (≈ 432 µM); in [4] it was “C”; in experiment [5] it was 512 µg/mL (≈ 864 µM); in [6] it was “C”; with Klebsiella pneumoniae, “C”; in experiment [7], “C”.
